Tested on: atrial fibrillation of 3 to 72 h duration
Assay: Randomized, double-blind, step-dose, placebo-controlled study in acute atrial fibrillation (Example 2)
Format: in vivo, human
Procedure: This was a randomized, double-blind, step-dose, placebo-controlled, parallel group study on humans. Fifty-six patients with atrial fibrillation of 3 to 72 h duration were randomized to one of two COMPOUND A dose groups or to placebo. The two COMPOUND A groups were RSD-1 (0.5 mg/kg followed by 1.0 mg/kg) or RSD-2 (2.0 mg/kg followed by 3.0 mg/kg), doses given by intravenous infusion over 10 min. The primary endpoint was termination of atrial fibrillation during a 10-min infusion or the subsequent 30-min. Secondary endpoints included the number of patients in sinus rhythm at 0.5, 1 and 24 h post-infusion and time to conversion to sinus rhythm. […] COMPOUND A converted acute atrial fibrillation to sinus rhythm.
Patients in this study had to have a rhythm of sustained atrial fibrillation (AF) with a duration of 3 to 72 h at the time of randomization. Patients were randomized to one of three groups and in each group received up to two 10-min intravenous infusions, separated by 30 min. Infusions were placebo followed by placebo, 0.5 mg/kg followed by 1.0 mg/kg COMPOUND A, or 2.0 […] COMPOUND A. The second dose in each group was administered only if AF was present 30 min after completion of the first dose. Doses for patients weighing>113 kg were capped as if the patient weight was 113 kg.
A Holter rhythm strip continuously monitored ECG, vital signs (blood pressure and heart rate, BP and HR, respectively) and O2 saturation were recorded every 2 min from the start of infusion to 5 min after, as well as at 15, 30, 60, 120, 240, 360, and 480 min and at discharge and one-week follow-up. Twelve-lead ECGs were obtained before dosing and every minute during infusion to 5 min after, as well as at 15, 30, 60, 120, 240, 360, and 480 min and at discharge, 24 h and one-week follow-up, and at the time of arrhythmia termination or significant rhythm changes. Venous blood samples were drawn for COMPOUND A plasma concentrations at 0, 15, 30, 120, 240, 480 min discharge and at AF termination or significant adverse events.
Fifty-five patients were evaluated for efficacy. Data are presented as mean±SD, median with interquartile range (IQR), all tests were performed as two sided and 95% confidence interval (CI) were produced; p<0.05 was considered statistically significant unless stated otherwise. Analysis of the relationship between termination of AF and treatment was performed using a chi-square analysis. In cases of small cell frequencies, the Fisher's exact test was used. A Cochran-Armitage test statistic with table scores was used to test the ascending dose evaluation of efficacy.
The time to conversion from the start of the first infusion was analyzed by the Cox regression method of event time analysis and one-way ANOVA. Assessment of the significance of time point values and mean change from baseline to each follow-up reading of ECG intervals (QRS, QT, QTc), BP, and HR were made within dose groups using paired t tests, and comparisons among dose groups were made using a one-way ANOVA.

[1] = End infusion 1, 0.5 and 1.0 mg/kg
[2] = End infusion 1, 2.0 and 3.0 mg/kg
[3] = End infusion 2, 0.5 and 1.0 mg/kg
[4] = End infusion 2, 2.0 and 3.0 mg/kg

COc1ccc(CCO[C@@H]2CCCC[C@H]2N2CC[C@@H](O)C2)cc1OC.Cl [COMPOUND A, (1R,2R)-2-[(3R)-hydroxypyrrolidinyl]-1-(3,4-dimethoxyphenethoxy)cyclohexane monohydrochloride]
net efficacy for conversion of recent onset AF (61% to 5% (placebo)): 56%
median time for termination of AF from the start of the first infusion (COMPOUND A treatment groups (FIG. 1)): 11 min
HEART RATE [1]: 104 ± 7 BPM
QRS [1]: 86 ± 3 ms
QTc [1]: 419 ± 6 ms
HEART RATE [2]: 98 ± 5 BPM
QRS [2]: 95 ± 3 ms
QTc [2]: 449 ± 9 ms
HEART RATE [3]: 107 ± 6 BPM
QRS [3]: 90 ± 6 ms
QTc [3]: 414 ± 11 ms
HEART RATE [4]: 104 ± 6 BPM
QRS [4]: 99 ± 5 ms
QTc [4]: 447 ± 17 ms
cumulative AF termination within 30 min of infusion (RSD-1: 0.5 mg/kg followed by 1.0 mg/kg i.v.): 11%
patients in sinus rhythm (excluding those electrically cardioverted) at 24 h post infusion (RSD-1: 0.5 + 1.0 mg/kg): 56%
patients in sinus rhythm at 30 min post-infusion (RSD-1: 0.5 + 1.0 mg/kg): 11%
patients in sinus rhythm at 1 h post infusion (RSD-1: 0.5 + 1.0 mg/kg): 11%
median time to conversion to sinus rhythm from the start of the first infusion (RSD-1, five eventual responders): 166 min
patients reporting cardiac disorders (adverse events) (RSD-1 group): 22.2%
electrical cardioversion attempted within the study period (24 h) (RSD-1 treated): 50%
electrical cardioversion successful (RSD-1 treated): 100%
cumulative AF termination within 30 min of infusion (RSD-2: 2.0 mg/kg followed by 3.0 mg/kg i.v.): 61%
patients in sinus rhythm (excluding those electrically cardioverted) at 24 h post infusion (RSD-2: 2.0 + 3.0 mg/kg): 79%
patients in sinus rhythm at 30 min post-infusion (RSD-2: 2.0 + 3.0 mg/kg): 56%
patients in sinus rhythm at 1 h post infusion (RSD-2: 2.0 + 3.0 mg/kg): 53%
median time to conversion to sinus rhythm from the start of the first infusion (RSD-2, eleven responders): 14 min
mean heart rate (RSD-2 dose, T1=15 min (baseline mean 106)): 90 beats per min
median time to termination of AF after start of the first infusion (RSD-2 group): 11 min
patients reporting cardiac disorders (adverse events) (RSD-2 group): 16.7%
electrical cardioversion attempted within the study period (24 h) (RSD-2 treated): 22%
electrical cardioversion successful (RSD-2 treated): 100%
QT interval, first available ECG records after conversion to sinus rhythm (human, in vivo): 366 ± 28 ms
QTc interval, first available ECG records after conversion to sinus rhythm (human, in vivo): 427 ± 19 ms
drug related proarrhythmia (in vivo): no instances
effect on QTc or QRS intervals compared to placebo (infusion): did not significantly prolong

From US8263638B2, “Dosing regimens for ion channel modulating compounds” (priority 2004, dated 2012)
